{"source": "patent US20060111381A1", "about": "“Amidine compounds” (priority 2002, published 2006)", "key": {"ICR mice [1]": {"tested_on": "ICR mice", "test": "Straub tail behaviour (indicator of CNS activity) in writhing-study mice", "settings": "any doses (1 to 128 mg/kg IP)"}, "ICR mice [2]": {"tested_on": "ICR mice", "test": "Phenylquinone-induced writhing model in mice (writhes counted in following 5-10 minute period)", "assay_type": "in vivo", "settings": "for No. of Writhings, Individual: individual mice; for % Inhibition: relative to vehicle group", "experimental": "(§1) Testing on compound KRS-6-48 was carried out under contract by MDS Services—Taiwan Ltd. KRS-6-48 was evaluated for possible analgesic activity in the phenylquinone-induced writhing model in mice (Siegmund et al, 1957). A serial 2-fold dosage variance was used in the test, from 128 mg/kg to 1 mg/kg (8 doses in total). Groups of 3 male or female ICR mice weighing 22±2 g were employed. Variant doses (1, 2, 4, 8, 16, 32, 64 and 128 mg/kg) of test substances were administered intraperitoneally (IP). A vehicle of 2% Tween 80 in 0.9% NaCl was used for the intraperitoneal injection. The control group received vehicle alone. […] A reduction in the number of writhes by 50 percent or more (≧50%) relative to the vehicle-treated group indicated possible analgesic activity.\nTesting on compounds KRS-6-41, KRS-6-51, and KRS-6-71 was also carried out under contract by MDS Services—Taiwan Ltd. The study was designed to evaluate the effects of the compounds as analgesics in the phenylquinone-induced writhing assay described in detail in Example 10 (Siegmund et al, 1957).\nas §1, with “In each case, a” for “Testing on compound KRS-6-48 was carried out under contract by MDS Services—Taiwan Ltd. KRS-6-48 was evaluated for possible analgesic activity in the phenylquinone-induced writhing model in mice (Siegmund et al, 1957). A”"}}, "note": "Values joined by “and” are separate entries in the source; they are usually repeats but may differ in a detail not shown here. Equal values may be shown once.", "data": [{"compound": "CCC(=Nc1ccccc1CC)NCCCN1CC[C@]23c4c5ccc(O)c4O[C@H]2[C@@H](O)C=CC3[C@H]1C5", "note": "(stereo partly drawn) [KRS-6-71, (5α,6α)-7,8-didehydro-4,5-epoxy-17-((N-(2-ethylphenyl)propionamidino)-propyl)morphinan, 3,6-diol]", "values": [{"measurement": "Straub tail behaviour", "setting": "ICR mice [1]", "result": "None of the test animals exhibited Straub tail behaviour"}, {"measurement": "No. of Writhings, Average", "setting": "ICR mice [2]; 1 mg/kg IP", "result": 18}, {"measurement": "No. of Writhings, Individual", "setting": "ICR mice [2]; 1 mg/kg IP", "result": "24 and 13 and 18"}, {"measurement": "% Inhibition", "setting": "ICR mice [2]; 1 mg/kg IP", "result": 22, "unit": "%"}, {"measurement": "No. of Writhings, Average", "setting": "ICR mice [2]; 2 mg/kg IP", "result": 14}, {"measurement": "No. of Writhings, Individual", "setting": "ICR mice [2]; 2 mg/kg IP", "result": "2 and 12 and 18"}, {"measurement": "% Inhibition", "setting": "ICR mice [2]; 2 mg/kg IP", "result": 39, "unit": "%"}, {"measurement": "No. of Writhings, Average", "setting": "ICR mice [2]; 4 mg/kg IP", "result": 11}, {"measurement": "No. of Writhings, Individual", "setting": "ICR mice [2]; 4 mg/kg IP", "result": "16 (2×) and 2"}, {"measurement": "% Inhibition", "setting": "ICR mice [2]; 4 mg/kg IP", "result": 52, "unit": "%"}, {"measurement": "No. of Writhings, Average", "setting": "ICR mice [2]; 8 mg/kg IP", "result": 11}, {"measurement": "No. of Writhings, Individual", "setting": "ICR mice [2]; 8 mg/kg IP", "result": "0 and 18 and 15"}, {"measurement": "% Inhibition", "setting": "ICR mice [2]; 8 mg/kg IP", "result": 52, "unit": "%"}, {"measurement": "No. of Writhings, Average", "setting": "ICR mice [2]; 16 mg/kg IP", "result": 7}, {"measurement": "No. of Writhings, Individual", "setting": "ICR mice [2]; 16 mg/kg IP", "result": "13 and 0 and 8"}, {"measurement": "% Inhibition", "setting": "ICR mice [2]; 16 mg/kg IP", "result": 70, "unit": "%"}, {"measurement": "No. of Writhings, Average", "setting": "ICR mice [2]; 32 mg/kg IP", "result": 7}, {"measurement": "No. of Writhings, Individual", "setting": "ICR mice [2]; 32 mg/kg IP", "result": "6 and 0 and 15"}, {"measurement": "% Inhibition", "setting": "ICR mice [2]; 32 mg/kg IP", "result": 70, "unit": "%"}, {"measurement": "No. of Writhings, Average", "setting": "ICR mice [2]; 64 mg/kg IP", "result": 1}, {"measurement": "No. of Writhings, Individual", "setting": "ICR mice [2]; 64 mg/kg IP", "result": "0 (2×) and 3"}, {"measurement": "% Inhibition", "setting": "ICR mice [2]; 64 mg/kg IP", "result": 96, "unit": "%"}, {"measurement": "No. of Writhings, Average", "setting": "ICR mice [2]; 128 mg/kg IP", "result": 0}, {"measurement": "No. of Writhings, Individual", "setting": "ICR mice [2]; 128 mg/kg IP", "result": 0}, {"measurement": "% Inhibition", "setting": "ICR mice [2]; 128 mg/kg IP", "result": 100, "unit": "%"}, {"measurement": "melting point", "result": "58 to 59", "unit": "°C"}]}]}
